Measured values reported in ChEMBL document CHEMBL5303304, “EUbOPEN Chemogenomics Library - IncuCyte” (2023).

What was measured:
Type in all cases: toxicity, cell-based
Fibroblast = assay: Incucyte cell viability with human fibroblast; details: 10 µM, compound concentration 10 uM
HEK-293T = assay: Incucyte cell viability with HEK293T; details: human, 10 µM, compound concentration 10 uM
U2OS = assay: Incucyte cell viability with U2OS; details: human, 10 µM, compound concentration 10 uM
Also: unitless GR value; below 1 slowed growth and below 0 cell loss.

SMILES	Growth Rate (Fibroblast; 0 h, replicate number 1)	Growth Rate (Fibroblast; 0 h, replicate number 2)	Growth Rate (Fibroblast; 6 h, replicate number 2)	Growth Rate (Fibroblast; 12 h, replicate number 2)	Growth Rate (Fibroblast; 18 h, replicate number 1)	Growth Rate (Fibroblast; 18 h, replicate number 2)	Growth Rate (Fibroblast; 24 h, replicate number 2)	Growth Rate (HEK-293T; 0 h, replicate number 1)	Growth Rate (HEK-293T; 6 h, replicate number 2)	Growth Rate (HEK-293T; 12 h, replicate number 2)	Growth Rate (HEK-293T; 18 h, replicate number 2)	Growth Rate (HEK-293T; 24 h, replicate number 2)	Growth Rate (U2OS; 0 h, replicate number 1)	Growth Rate (U2OS; 0 h, replicate number 2)	Growth Rate (U2OS; 6 h, replicate number 2)	Growth Rate (U2OS; 12 h, replicate number 2)	Growth Rate (U2OS; 18 h, replicate number 2)	Growth Rate (U2OS; 24 h, replicate number 2)	Growth Rate (HEK-293T; 12 h, replicate number 1)	Growth Rate (HEK-293T; 18 h, replicate number 1)	other results
C[C@@H]1CC[C@@]2(OC1)O[C@H]1[C@@H](O)[C@H]3[C@@H]4CC[C@H]5C[C@@H](O[C@@H]6O[C@H](CO)[C@H](O[C@@H]7O[C@H](CO)C(O)[C@H](O[C@@H]8OC[C@@H](O)[C@H](O)[C@H]8O)[C@H]7O[C@@H]7O[C@H](CO)[C@H](O)[C@H](O[C@@H]8O[C@H](CO)[C@@H](O)[C@H](O)[C@H]8O)[C@H]7O)[C@H](O)[C@H]6O)[C@H](O)C[C@]5(C)[C@H]4CC[C@]3(C)[C@H]1[C@@H]2C (stereo partly specified) [DIGITONIN]	0.3	0.94	0.68	0.67	0.93	0.73	0.85	-0.37	0.94	0.65	0.68	0.72	0.49	0.74	0.68	0.67	0.6	0.6			Growth Rate (Fibroblast; 24 h, replicate number 1): 0.88; Growth Rate (U2OS; 12 h, replicate number 1): 0.85; Growth Rate (U2OS; 18 h, replicate number 1): 0.96; Growth Rate (U2OS; 24 h, replicate number 1): 1
COc1ccc([C@@H]2Sc3ccccc3N(CCN(C)C)C(=O)[C@@H]2OC(C)=O)cc1.Cl [DILTIAZEM HYDROCHLORIDE]	0.54	-0.94			0.89	0.94	0.87	0.6	0.11	0.55	0.86	0.86		-0.41			0.94				Growth Rate (Fibroblast; 12 h, replicate number 1): -0.67; Growth Rate (Fibroblast; 24 h, replicate number 1): 0.57
C[S+](C)[O-] [DIMETHYL SULFOXIDE]			0.8	0.83	0.87			0.12	0.48	0.78	0.83	0.69		0.1	0.27	0.44	0.5	0.44	0.83	0.88	Growth Rate (Fibroblast; 6 h, replicate number 1): 0.99; Growth Rate (HEK-293T; 0 h, replicate number 2): 0.07; Growth Rate (HEK-293T; 24 h, replicate number 1): 0.9; Growth Rate (U2OS; 6 h, replicate number 1): 0.89
Cc1ccc(-n2nc(C(C)(C)C)cc2NC(=O)Nc2ccc(OCCN3CCOCC3)c3ccccc23)cc1 [DORAMAPIMOD]		0.08						-0.47					-1			0.9	0.87	0.76	0.67	0.87	Growth Rate (HEK-293T; 6 h, replicate number 1): 0.67; Growth Rate (HEK-293T; 24 h, replicate number 1): 0.95
CSc1ccc(C(=O)/C=C/c2cc(C)c(OC(C)(C)C(=O)O)c(C)c2)cc1 [ELAFIBRANOR]	0.61	0.85	0.74	0.59	0.87	0.9	0.75	0.18	0.6	0.79	0.97	0.99	-0.15	0.75	0.45	0.69		0.76			Growth Rate (U2OS; 6 h, replicate number 1): 0.88; Growth Rate (U2OS; 12 h, replicate number 1): 0.63; Growth Rate (U2OS; 18 h, replicate number 1): 0.88; Growth Rate (U2OS; 24 h, replicate number 1): 0.92
OC(CN1CCC(Cc2ccc(F)cc2)CC1)c1ccc(Cl)cc1 (stereo unspecified) [ELIPRODIL]		-0.95	0.5											-0.72		0.95			0.57	0.88	Growth Rate (Fibroblast; 6 h, replicate number 1): -0.61; Growth Rate (Fibroblast; 12 h, replicate number 1): -0.13; Growth Rate (HEK-293T; 0 h, replicate number 2): 0.62
COc1cc(F)ccc1-c1cc(Nc2cc(CS(C)(=N)=O)ccn2)ncc1F (stereo unspecified) [ENITOCICLIB]	-1					0.96	0.69	-1	-0.19	-0.41	-0.4	-0.34	-1		0.69	0.36	0.3	0.14	-0.15	-0.19	Growth Rate (HEK-293T; 0 h, replicate number 2): 0.31; Growth Rate (HEK-293T; 6 h, replicate number 1): 0.19; Growth Rate (HEK-293T; 24 h, replicate number 1): -0.17; Growth Rate (U2OS; 12 h, replicate number 1): 0.57; Growth Rate (U2OS; 18 h, replicate number 1): 0.29; Growth Rate (U2OS; 24 h, replicate number 1): 0.27
